Assay results reported in patent US20250145633A1, “SUBSTITUTED FURANOPYRIMIDINE COMPOUNDS AS PDE1 INHIBITORS” (Dart NeuroScience, LLC, priority 2017, published 2025).

Target: human PDE1B enzyme (Homo sapiens (Human), UniProt Q01064)
Assay: IMAP TR-FRET PDE1B enzymatic assay
Assay type: biochemical
Settings: negative log of half-maximal molar inhibitory concentration, 200 nM FAM-cAMP, values given as bins; for IC50: read-out: PDE1b (pIC50) (converted)
How it was run: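 Full-length GST-tagged human PDE1B (250 pg/well) in IMAP BSA buffer with 10 U/ml calmodulin and 2.5 mM CaCl2; compound pre-incubated 5 min at room temperature, then 200 nM (final) FAM-cAMP for 30 min. IMAP binding reagent/Tb added, 1 h; TR-FRET 520/490 ratio read. IC50 from sigmoidal dose-response fit.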

SMILES | IC50 [nM] | PDE1b (pIC50)
Cc1ccc(NC(=O)c2c(C)oc3ncnc(NC4(C)CC4)c23)nc1 [Example 438, 6-Methyl-4-[(1-methylcyclopropyl)amino]-N-(5-methylpyridin-2-yl)furo[2,3-d]pyrimidine-5-carboxamide] | 100 to 1000 | 
Cc1oc2ncnc(NC3(C)CC3)c2c1C(=O)Nc1cc(C)n(C)n1 [Example 439, N-(1,5-Dimethyl-1H-pyrazol-3-yl)-6-methyl-4-[(1-methylcyclopropyl)amino]furo[2,3-d]pyrimidine-5-carboxamide] | 100 to 1000 | 
COCCn1ccc(NC(=O)c2c(C)oc3ncnc(NC4(C)CC4)c23)n1 [Example 440, N-[1-(2-Methoxyethyl)-1H-pyrazol-3-yl]-6-methyl-4-[(1-methylcyclopropyl)amino]furo[2,3-d]pyrimidine-5-carboxamide] | 10 to 100 | 
Cc1ncc(NC(=O)c2c(C)oc3ncnc(NC4(C)CC4)c23)nc1C [Example 441, N-(5,6-Dimethylpyrazin-2-yl)-6-methyl-4-[(1-methylcyclopropyl)amino]furo[2,3-d]pyrimidine-5-carboxamide] | 10 to 100 | 
Cc1nc(NC(=O)c2c(C)oc3ncnc(NC4(C)CC4)c23)oc1C [Example 442, N-(Dimethyl-1,3-oxazol-2-yl)-6-methyl-4-[(1-methylcyclopropyl)amino]furo[2,3-d]pyrimidine-5-carboxamide] | 10 to 100 | 
Cc1csc(NC(=O)c2c(C)oc3ncnc(NC4(C)CC4)c23)n1 [Example 443, 6-Methyl-N-(4-methyl-1,3-thiazol-2-yl)-4-[(1-methylcyclopropyl)amino]furo[2,3-d]pyrimidine-5-carboxamide] | 10 to 100 | 
Cc1oc2ncnc(NC3(C)CC3)c2c1C(=O)N1CCC(C#N)(c2cccc(F)n2)CC1 [Example 444, 4-(6-Fluoropyridin-2-yl)-1-{6-methyl-4-[(1-methylcyclopropyl)amino]furo[2,3-d]pyrimidine-5-carbonyl}piperidine-4-carbonitrile] | 10 to 100 | 
Cc1oc2ncnc(NC3(C)CC3)c2c1C(=O)Nc1ccn(C(C)C)n1 [Example 445, 6-Methyl-4-[(1-methylcyclopropyl)amino]-N-[1-(propan-2-yl)-1H-pyrazol-3-yl]furo[2,3-d]pyrimidine-5-carboxamide] | 10 to 100 | 
Cc1oc2ncnc(NC3(C)CC3)c2c1C(=O)Nc1ccn(-c2ncccc2F)n1 [Example 446, N-[1-(3-Fluoropyridin-2-yl)-1H-pyrazol-3-yl]-6-methyl-4-[(1-methylcyclopropyl)amino]furo[2,3-d]pyrimidine-5-carboxamide] | 10 to 100 | 
Cc1oc2ncnc(NC3(C)CC3)c2c1C(=O)Nc1cnn(-c2ncccc2F)c1 [Example 447, N-[1-(3-Fluoropyridin-2-yl)-1H-pyrazol-4-yl]-6-methyl-4-[(1-methylcyclopropyl)amino]furo[2,3-d]pyrimidine-5-carboxamide] | 10 to 100 | 
Cc1cnc(CNC(=O)c2c(C)oc3ncnc(NC4(C)CC4)c23)o1 [Example 448, 6-Methyl-N-[(5-methyl-1,3-oxazol-2-yl)methyl]-4-[(1-methylcyclopropyl)amino]furo[2,3-d]pyrimidine-5-carboxamide] | 10 to 100 | 
COc1nccc(CNC(=O)c2c(C)oc3ncnc(NC4(C)CC4)c23)n1 [Example 449, N-[(2-Methoxypyrimidin-4-yl)methyl]-6-methyl-4-[(1-methylcyclopropyl)amino]furo[2,3-d]pyrimidine-5-carboxamide] | 10 to 100 | 
Cc1oc2ncnc(NC3(C)CC3)c2c1C(=O)NCc1ccc(C(F)(F)F)cn1 [Example 450, 6-Methyl-4-[(1-methylcyclopropyl)amino]-N-{[5-(trifluoromethyl)pyridin-2-yl]methyl}furo[2,3-d]pyrimidine-5-carboxamide] |  | >8
Cc1coc(NC(=O)c2c(C)oc3ncnc(NC4(C)CC4)c23)n1 [Example 451, 6-Methyl-N-(4-methyl-1,3-oxazol-2-yl)-4-[(1-methylcyclopropyl)amino]furo[2,3-d]pyrimidine-5-carboxamide] | 10 to 100 | 
Cc1noc(NC(=O)c2c(C)oc3ncnc(NC4(C)CC4)c23)n1 [Example 452, 6-Methyl-N-(3-methyl-1 2 4-oxadiazol-5-yl)-4-[(1-methylcyclopropyl)amino]furo[2,3-d]pyrimidine-5-carboxamide] | 10 to 100 | 
Cc1nc(NC(=O)c2c(C)oc3ncnc(NC4(C)CC4)c23)cs1 [Example 453, 6-Methyl-N-(2-methyl-1,3-thiazol-4-yl)-4-[(1-methylcyclopropyl)amino]furo[2,3-d]pyrimidine-5-carboxamide] | 10 to 100 | 
Cc1nsc(NC(=O)c2c(C)oc3ncnc(NC4(C)CC4)c23)n1 [Example 454, 6-Methyl-N-(3-methyl-1,2,4-thiadiazol-5-yl)-4-[(1-methylcyclopropyl)amino]furo[2,3-d]pyrimidine-5-carboxamide] |  | >8

SMILES | IC50 [nM] | PDE1b (pIC50)
Cc1ncnc2c1CCN(C(=O)c1c(C)oc3ncnc(NC4(C)CC4)c13)C2 [Example 455, 6-Methyl-5-f{4-methyl-5H,6H,7H,8H-pyrido[3,4-d]pyrimidine-7-carbonyl}-N-(1-methylcyclopropyl)furo[2,3-d]pyrimidin-4-amine] | 10 to 100 | 
Cc1oc2ncnc(NC3(C)CC3)c2c1C(=O)Nc1cnn(C2CCOCC2)c1 [Example 456, 6-Methyl-4-[(1-methylcyclopropyl)amino]-N-[1-(oxan-4-yl)-1H-pyrazol-4-yl]furo[2,3-d]pyrimidine-5-carboxamide] | 10 to 100 | 
Cc1oc2ncnc(NC3(C)CC3)c2c1C(=O)NCc1noc(C(F)(F)F)n1 [Example 457, 6-Methyl-4-[(1-methylcyclopropyl)amino]-N-{[5-(trifluoromethyl)-1,2,4-oxadiazol-3-yl]methyl}furo[2,3-d]pyrimidine-5-carboxamide] | 10 to 100 | 
Cc1ccnc(CNC(=O)c2c(C)oc3ncnc(NC4(C)CC4)c23)n1 [Example 458, 6-Methyl-4-[(1-methylcyclopropyl)amino]-N-[(4-methylpyrimidin-2-yl)methyl]furo[2,3-d]pyrimidine-5-carboxamide] | 10 to 100 | 
Cc1cc(C)nc(CNC(=O)c2c(C)oc3ncnc(NC4(C)CC4)c23)n1 [Example 459, N-[(4,6-Dimethylpyrimidin-2-yl)methyl]-6-methyl-4-[(1-methylcyclopropyl)amino]furo[2,3-d]pyrimidine-5-carboxamide] | 10 to 100 | 
Cc1cnc(CNC(=O)c2c(C)oc3ncnc(NC4(C)CC4)c23)cn1 [Example 460, 6-Methyl-4-[(1-methylcyclopropyl)amino]-N-[(5-methylpyrazin-2-yl)methyl]furo[2,3-d]pyrimidine-5-carboxamide] |  | >8
Cc1nc(CNC(=O)c2c(C)oc3ncnc(NC4(C)CC4)c23)no1 [Example 461, 6-Methyl-N-[(5-methyl-1,2,4-oxadiazol-3-yl)methyl]-4-[(1-methylcyclopropyl)amino]furo[2,3-d]pyrimidine-5-carboxamide] | 10 to 100 | 
COC(=O)c1cnc(C2CN(C(=O)c3c(C)oc4ncnc(NC5(C)CC5)c34)C2)nc1 [Example 462, Methyl 2-(1-{6-methyl-4-[(1-methylcyclopropyl)amino]furo[2,3-d]pyrimidine-5-carbonyl}azetidin-3-yl)pyrimidine-5-carboxylate] | 100 to 1000 | 
Cc1oc2ncnc(NC3(C)CC3)c2c1C(=O)NCc1nnc2ccc(C(F)(F)F)cn12 [Example 463, 6-Methyl-4-[(1-methylcyclopropyl)amino]-N-{[6-(trifluoromethyl)-[1,2,4]triazolo[4,3-a]pyridin-3-yl]methyl}furo[2,3-d]pyrimidine-5-carboxamide] | 10 to 100 | 
Cc1oc2ncnc(NC3(C)CC3)c2c1C(=O)NCc1noc(C2CC2)n1 [Example 464, N-[(5-Cyclopropyl-1,2,4-oxadiazol-3-yl)methyl]-6-methyl-4-[(1-methylcyclopropyl)amino]furo[2,3-d]pyrimidine-5-carboxamide] |  | >8
Cc1oc2ncnc(NC3(C)CC3)c2c1C(=O)N1CCc2c(ncnc2OC(C)C)C1 [Example 465, 6-Methyl-N-(1-methylcyclopropyl)-5-[4-(propan-2-yloxy)-5H,6H,7H,8H-pyrido[3,4-d]pyrimidine-7-carbonyl]furo[2,3-d]pyrimidin-4-amine] | 10 to 100 | 
Cc1ccnc(CNC(=O)c2c(C)oc3ncnc(NC4(C)CC4)c23)c1 [Example 466, 6-Methyl-4-[(1-methylcyclopropyl)amino]-N-[(4-methylpyridin-2-yl)methyl]furo[2,3-d]pyrimidine-5-carboxamide] | 10 to 100 | 
Cc1cnc(CNC(=O)c2c(C)oc3ncnc(NC4(C)CC4)c23)s1 [Example 467, 6-Methyl-N-[(5-methyl-1,3-thiazol-2-yl)methyl]-4-[(1-methylcyclopropyl)amino]furo[2,3-d]pyrimidine-5-carboxamide] |  | >8
Cc1nnc(CNC(=O)c2c(C)oc3ncnc(NC4(C)CC4)c23)s1 [Example 468, 6-Methyl-N-[(5-methyl-1,3,4-thiadiazol-2-yl)methyl]-4-[(1-methylcyclopropyl)amino]furo[2,3-d]pyrimidine-5-carboxamide] | 10 to 100 | 
Cc1oc2ncnc(NC3(C)CC3)c2c1C(=O)N(C)c1cnn(C)c1 [Example 469, N,6-Dimethyl-N-(1-methyl-1H-pyrazol-4-yl)-4-[(1-methylcyclopropyl)amino]furo[2,3-d]pyrimidine-5-carboxamide] | 100 to 1000 | 
Cc1oc2ncnc(NC3(C)CC3)c2c1C(=O)N(C)c1cnn(C(C)C)c1 [Example 470, N,6-Dimethyl-4-[(1-methylcyclopropyl)amino]-N-[1-(propan-2-yl)-1H-pyrazol-4-yl]furo[2,3-d]pyrimidine-5-carboxamide] | 100 to 1000 | 
Cc1oc2ncnc(NC3(C)CC3)c2c1C(=O)N1CCc2cncnc2C1 [Example 471, 6-Methyl-N-(1-methylcyclopropyl)-5-f{5H,6H,7H,8H-pyrido[3,4-d]pyrimidine-7-carbonyl}furo[2,3-d]pyrimidin-4-amine] | 10 to 100 | 
